Experimental data taken from patent US20090005398A1, “Methods For The Treatment of Central Nervous System Tumors” (priority 2007, published 2009).

Tested on: PANC-1
Assay: Cell-Titer-Glo cell proliferation
Type: cell-based
Conditions: Homo sapiens, pancreas, 72 h
Method: Exponentially growing cell lines of different tumor origins, cultured in appropriate media containing 10% fetal bovine serum at 37° C. in a 5% CO2 incubator were plated at low density (less than 2000 cells/well) in 96-well plates. Twenty four hours post-plating, cells were treated with different concentrations of compound ranging from 10 uM to 0.04 nM. Several wells were left untreated as a control. Seventy two hours post-treatment, cell numbers were determined using 50-100 ul per well of CellTiter-Glo (Promega #G7573). Plates were incubated at room temperature for 15 minutes and the chemiluminescent signal was read on the Victor V or Envison 2100 reader.
Concentration of compound that inhibited 50% of cell growth (IC50) was determined by 4 parameter fit of data using XLfit, (value of no cell control was subtracted from all samples for background). The Cell-Titer Glo data are shown in Table 3 below and represent a compilation of several different experiments, each performed using the general parameters outlined above, although minor variations may have been employed in some instances.

In the case of `C[C@@H](Oc1cc(-n2cnc3ccc(CN4CCN(C)CC4)cc32)sc1C(N)=O)c1ccccc1C(F)(F)F` [Example 1, 5-{6-[(4-Methylpiperazin-1-yl)methyl]-1H-benzimidazol-1-yl}-3-{(1R)-1-[2-(trifluoromethyl)phenyl]ethoxy}thiophene-2-carboxamide], the IC50 is reported as under 500 nM.
